Assay results taken from patent US20180153850A1, “COMPOSITIONS AND METHODS FOR TREATMENT OF CANCER” (The Regents of the University of California, priority 2015, published 2018).
pIC50: −log10 of the molar value. Read-outs that look alike come from different tables or passages of the source.

Columns and labels:
TaxR cells = assay: Cell growth assay in TaxR cells; assay type: cell-based; conditions: 24 h, read-out: IC50 value of docetaxel, TaxR cells
Procedure: Top panel, fluorescent and phase contrast pictures are shown. Lower panel, rhodamine intake ratio. […] Cell numbers were counted after 24 hrs of treatment.
Fluorescent and phase contrast pictures are shown. Lower panel is the rhodamine intake ratio. […] Cell numbers were counted after 24 hrs of treatment. […] The numbers of colonies were counted after 3 weeks.
(§1) Cells were seeded in 12-well plates at a density of 1×10^5 cells per well. Cells were treated and total cell numbers were counted using a Coulter cell counter.

DU145-DTXR cells = assay: Cell growth assay in DU145-DTXR cells; assay type: cell-based; conditions: for pIC50: 24 h; for docetaxel resistance in DU145-DTXR cells: 10 nM docetaxel with 0.5 μM elacridar or 20 μM bicalutamide or enzalutamide, 48 hrs
Procedure: (§2) Top panel, fluorescent and phase contrast pictures are shown. Lower panel, rhodamine intake ratio. […] Cell numbers were counted after 24 hrs of treatment. […] Cell numbers were counted after 24 hrs of treatment. […] Tumor sizes were measured twice a week.
DU145-DTXR cells were plated in 12-well plate at 1×10^5 cells per well. […] FIG. 8A: Cell numbers were counted. FIG. 8B: Cell pictures were taken to show the cell survival inhibition.
DU145-DTXR cells were plated in 12-well plate at 1×10^5 cells per well. […] Cell numbers were counted (top panel: bicalutamide; bottom panel: enzalutamide). FIG. 9B: DU145 parental cells and DU145-DTX cells were plated in 12-well plate at 1×10^5 cells per well. […] Cell numbers were counted.
as §1

DU145 cells = assay: Cell growth assay in parental DU145 cells; assay type: cell-based; conditions: Homo sapiens, DU-145, read-out: IC50 to docetaxel, 24 hrs
Procedure: as §2, §1

C4-2B tumors = assay: In vivo tumorigenesis assay, C4-2B tumors; set-up: species or system SCID mice; conditions: docetaxel 10 mg/kg once a week
Procedure: (§3) Tumor sizes were measured twice a week. *, P<0.05. **, P<0.01. DTX, docetaxel, Bic, bicalutamide.
(§4) Tumor tissues were harvested after 3 weeks of treatment.

TaxR tumors = assay: In vivo tumorigenesis assay, TaxR tumors; set-up: species or system SCID mice; conditions: docetaxel 10 mg/kg i.p. once a week; bicalutamide 25 mg/kg p.o. 5 days a week; 3 weeks
Procedure: as §3, §4

ABCB1 (P-gp) ATPase = ABCB1 (P-gp) ATPase (Homo sapiens, UniProt P08183); assay: in vitro
Sequence of ABCB1 (P-gp) ATPase (P08183 whole entry): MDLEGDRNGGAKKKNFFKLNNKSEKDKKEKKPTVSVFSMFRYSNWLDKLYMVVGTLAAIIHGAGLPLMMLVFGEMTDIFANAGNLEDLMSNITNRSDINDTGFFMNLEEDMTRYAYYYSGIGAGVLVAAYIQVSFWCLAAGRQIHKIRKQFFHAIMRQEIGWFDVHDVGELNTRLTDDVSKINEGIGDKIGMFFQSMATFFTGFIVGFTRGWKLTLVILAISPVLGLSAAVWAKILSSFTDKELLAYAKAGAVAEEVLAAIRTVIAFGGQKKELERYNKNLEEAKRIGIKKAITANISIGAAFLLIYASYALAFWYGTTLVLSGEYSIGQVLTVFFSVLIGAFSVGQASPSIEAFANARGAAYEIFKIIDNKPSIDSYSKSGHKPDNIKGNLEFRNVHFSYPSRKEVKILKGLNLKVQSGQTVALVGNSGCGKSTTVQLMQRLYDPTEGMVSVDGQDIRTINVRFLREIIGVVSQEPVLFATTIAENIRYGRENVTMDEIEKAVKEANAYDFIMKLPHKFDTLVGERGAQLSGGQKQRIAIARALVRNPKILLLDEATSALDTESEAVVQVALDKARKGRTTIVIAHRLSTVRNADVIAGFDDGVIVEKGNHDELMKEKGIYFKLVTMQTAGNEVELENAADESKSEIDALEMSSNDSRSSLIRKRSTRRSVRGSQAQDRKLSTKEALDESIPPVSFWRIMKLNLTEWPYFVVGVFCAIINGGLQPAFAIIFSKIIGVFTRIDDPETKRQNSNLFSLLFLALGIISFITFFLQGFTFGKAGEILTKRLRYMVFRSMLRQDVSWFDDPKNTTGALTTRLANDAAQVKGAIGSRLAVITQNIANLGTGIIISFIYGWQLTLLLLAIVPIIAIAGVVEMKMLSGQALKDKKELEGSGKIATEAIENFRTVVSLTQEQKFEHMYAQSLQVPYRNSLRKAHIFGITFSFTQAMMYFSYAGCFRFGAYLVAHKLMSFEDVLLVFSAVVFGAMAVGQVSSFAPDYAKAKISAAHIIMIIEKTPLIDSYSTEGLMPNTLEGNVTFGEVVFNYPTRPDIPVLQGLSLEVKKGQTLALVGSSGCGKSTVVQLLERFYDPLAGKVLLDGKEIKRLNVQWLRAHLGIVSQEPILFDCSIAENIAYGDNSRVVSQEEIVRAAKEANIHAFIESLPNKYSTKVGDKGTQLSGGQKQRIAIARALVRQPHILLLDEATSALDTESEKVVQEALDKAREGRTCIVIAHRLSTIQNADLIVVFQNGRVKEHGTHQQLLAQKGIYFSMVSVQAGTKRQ

ABCB1 = ABCB1 (Homo sapiens, UniProt P08183); conditions: 48 h, 20 μmol/L
Sequence of ABCB1 (P08183 whole entry): as above
Procedure: (§5) FIG. 1A: C4-2B and TaxR cells were seeded in 6-well plates at a density of 2×10^5 cells per well. […] Cells were incubated with 1 μg/mL Rhodamine 123 for another 4 hrs. The cells were then washed 3 times with 1×PBS. Fluorescence was detected at an excitation wavelength of 480 nm and an emission wavelength of 534 nm. […] Lower panel, rhodamine intake ratio.
(§6) Cells were incubated with 1 μg/mL Rhodamine 123 for another 4 hrs. The cells were then washed three times with 1×PBS. Fluorescence was detected at an excitation wavelength of 480 nm and an emission wavelength of 534 nm. […] Lower panel is the rhodamine intake ratio.
(§7) Cells were seeded in 6-well plates at a density of 2×10^5 cells per well. […] The cells were then washed three times with PBS. […] Each experiment was repeated at least 3 times.

[1] = molecular target: ABCB1 (P-glycoprotein, MDR1) (Homo sapiens, UniProt P08183); assay: in vitro
Sequence of ABCB1 (P-glycoprotein, MDR1) (P08183 whole entry): as above
Procedure: as §5, §6, §7

Row | SMILES | pIC50 (TaxR cells; docetaxel alone, 24 hrs) | pIC50 (TaxR cells; in combination with 20 μM bicalutamide, 24 hrs) | pIC50 (TaxR cells; in combination with 20 μM enzalutamide, 24 hr) | effect on growth of DU145-DTXR cells (DU145-DTXR cells; 10 nM docetaxel, 20 μM bicalutamide, alone or combined, 24 hrs) | pIC50 (DU145-DTXR cells; read-out: IC50 to docetaxel) | pIC50 (DU145-DTXR cells; read-out: IC50 value of docetaxel) | pIC50 (DU145 cells) | C4-2B tumor growth (C4-2B tumors) | tumor growth of TaxR cells (TaxR tumors) | docetaxel resistance in DU145-DTXR cells (DU145-DTXR cells) | inhibition at 40 min, 2.5 µM (ABCB1 (P-gp) ATPase) | rhodamine intake (ABCB1) | inhibition at 24 h, 20 μM [1] | inhibition at 40 min, 40 µM (ABCB1 (P-gp) ATPase)
1 | CC(=O)O[C@@]12CO[C@@H]1C[C@H](O)[C@@]1(C)C(=O)[C@H](O)C3=C(C)[C@@H](OC(=O)[C@H](O)[C@@H](NC(=O)OC(C)(C)C)c4ccccc4)C[C@@](O)([C@@H](OC(=O)c4ccccc4)[C@H]21)C3(C)C [docetaxel] | 6.85 | ~8.30 | ~8.52 | only minimal effects | 7.28 | ~8.12 | 8.37 | significantly repressed | Neither docetaxel nor bicalutamide treatment alone inhibited tumor growth | – | – | – | – | –
2 | COc1cc2c(cc1OC)CN(CCc1ccc(NC(=O)c3cccc4c(=O)c5cccc(OC)c5[nH]c34)cc1)CC2 [elacridar] | – | – | – | – | – | – | – | – | – | reversal of docetaxel resistance | 69% | – | – | –
3 | CNC(=O)c1ccc(N2C(=S)N(c3ccc(C#N)c(C(F)(F)F)c3)C(=O)C2(C)C)cc1F [enzalutamide] | – | – | – | – | – | – | – | – | – | reversal of docetaxel resistance | – | 66.2% | ~60% | 60%
